Tests used:
Experiment in all cases: Tyrosine kinase activity inhibition rate in cell membrane fraction (Poly-Glu4-Tyr substrate)
Format in all cases: biochemical
Conditions in all cases: 25 μM kinase inhibitor, 25 μM ATP
[1] = system: tyrosine kinase in cell membrane fraction of BT-549
Protocol: (§1) Breast cancer cell lines shown in Table 3 were cultured in a 150 mm dish so as to be about 80% confluent, the cells were recovered using PBS and a scraper, and a cell pellet was obtained by centrifugal operation (900×g, for 5 minutes, at 4° C.). The pellet was frozen with liquid nitrogen and stored at −80° C. until preparation of the measurement sample.
(§2) 500 μl of NP40 (−) solubilized buffer (20 mM HEPES (pH 7.4)), (w/v) % glycerol, 0.2% protease inhibitor cocktail (#P8340: Sigma-Aldrich (product composition: 104 mM AEBSF, 80 μM aprotinin, 4 mM bestatin, 1.4 mM E-64, 2 mM leupeptin, 1.5 mM Pepstatin A), 50 mM NaF and 200 μM Na3VO4) was added to the cell pellet, followed by stirring for 2 seconds three times using a vortex mixer. After being allowed to stand for 10 minutes, the soluble fraction was removed by centrifugal operation (at 20000×g, for 30 minutes, at 4° C.). The obtained pellet was resuspended in 500 μl of NP40 (−) solubilized buffer, the soluble fraction was again removed by centrifugal operation (at 20000×g, for 20 minutes, at 4° C.), and the pellet was washed. The pellet was resuspended by adding 500 μl of NP40 (+) solubilized buffer (a buffer prepared by adding NP-40 to the NP40 (−) solubilized buffer at a final concentration of 1%) to the pellet, pipetting fifty times, and vortexing for 2 seconds three times. After being allowed to stand for 10 minutes, a cell membrane fraction containing a membrane protein was obtained by centrifugal operation (at 20000×g, for 40 minutes, at 4° C.). The protein concentration of the fraction was measured by DC protein assay (#500-0116 JA: Bio-Rad) and the fraction was used as a sample for kinase activity measurement. The sample was frozen with liquid nitrogen and stored at −80° C. until used for the following kinase activity measurement.
(§3) NeutrAvidin Coated Plates (HBC) (96 white plate; #15509: Pierce) were washed three times with 300 μl of TBS-T (20 mM Tris-HCl (pH 7.4)), 150 mM NaCl, 0.1% Tween), and then 100 μl of Poly-Glu4-Tyr biotin conjugate (#12440: Upstate) which had been diluted to 1 μg/ml with TBS (20 mM Tris-HCl (pH 7.4), 150 mM NaCl) was added to the wells. After shaking at 37° C. and 400 rpm for 90 minutes, the wells were washed with 300 μl of TBS-T three times and a measuring plate was obtained.
(§4) The measurement sample was diluted with a kinase buffer (20 mM HEPES (pH 7.4), 25 mM MgCl2, 1.25 mM MnCl2, 250 μM Na3VO4, 12.5 (w/v) % glycerol) so as to adjust the protein concentration to 6.25 μg/ml. The diluted measurement sample was transferred to wells of a 96 well V bottom plate. A DMSO solution (inhibitor concentration: 5 mM) containing one type of tyrosine kinase inhibitors (Inhibitors 1 to 10 shown in Table 6) was added to the wells at a ratio of 1:160 based on the diluted measurement sample solution, followed by mixing thereof. As the control, DMSO was added to the diluted measurement sample at the same ratio as the solution of the inhibitor. The used tyrosine kinase inhibitors are represented as Inhibitors 1 to 10 in Table 6.
(§5) After addition of the inhibitors, a mixed solution of the measurement sample and the inhibitor was allowed to stand at room temperature for 10 minutes. 40 μl of the mixed solution was transferred to wells of the measuring plate and 10 μl of an ATP solution (20 mM HEPES (pH 7.4), […]) as the phosphate group donor was added to the wells.
(§6) The composition of the solution in the wells is as follows: protein concentration: 5 μg/ml, 20 mM HEPES (pH 7.4), 20 mM MgCl2, 1 mM MnCl2, 200 μM Na3VO4, 10 (w/v) % glycerol, 25 μM ATP, 25 μM kinase inhibitor.
(§7) After shaking the measuring plate at 37° C. and 400 rpm for 60 minutes, the solution was removed from the measuring plate, and the wells were washed with 300 μl of TBS-T three times. 100 μl of Starting Block T20 (TBS) (#37543: Pierce) as a blocking solution was added to the wells, followed by blocking at 37° C. and 400 rpm for 10 minutes. The blocking solution was removed from the measuring plate. […]

[2] = system: tyrosine kinase in cell membrane fraction of MCF7
Protocol: as §1, §2, §3, §4, §5, §6, §7

[3] = system: tyrosine kinase in cell membrane fraction of BT-474
Protocol: as §1, §2, §3, §4, §5, §6, §7

[4] = system: tyrosine kinase in cell membrane fraction of ZR-75-1
Protocol: as §1, §2, §3, §4, §5, §6, §7

[5] = system: tyrosine kinase in cell membrane fraction of HCC1937
Protocol: as §1, §2, §3, §4, §5, §6, §7

[6] = system: tyrosine kinase in cell membrane fraction of SK-BR-3
Protocol: as §1, §2, §3, §4, §5, §6, §7

[7] = system: tyrosine kinase in cell membrane fraction of MDA-MB-436
Protocol: as §1, §2, §3, §4, §5, §6, §7

[8] = system: tyrosine kinase in cell membrane fraction of HCC202
Protocol: as §1, §2, §3, §4, §5, §6, §7

[9] = system: tyrosine kinase in cell membrane fraction of BT-483
Protocol: as §1, §2, §3, §4, §5, §6, §7

[10] = system: tyrosine kinase in cell membrane fraction of T47D
Protocol: as §1, §2, §3, §4, §5, §6, §7

[11] = system: tyrosine kinase in cell membrane fraction of BT-20
Protocol: as §1, §2, §3, §4, §5, §6, §7

[12] = system: tyrosine kinase in cell membrane fraction of MDA-MB-157
Protocol: as §1, §2, §3, §4, §5, §6, §7

[13] = system: tyrosine kinase in cell membrane fraction of MDA-MB-231
Protocol: as §1, §2, §3, §4, §5, §6, §7

[14] = system: tyrosine kinase in cell membrane fraction of MDA-MB-415
Protocol: as §1, §2, §3, §4, §5, §6, §7

[15] = system: tyrosine kinase in cell membrane fraction of ZR-75-30
Protocol: as §1, §2, §3, §4, §5, §6, §7

[16] = system: tyrosine kinase in cell membrane fraction of AU565
Protocol: as §1, §2, §3, §4, §5, §6, §7

[17] = system: tyrosine kinase in cell membrane fraction of HCC1806
Protocol: as §1, §2, §3, §4, §5, §6, §7

`COc1cc2ncnc(Nc3cccc(Cl)c3)c2cc1OC` [Inhibitor 1] showed an Inhibition rate [1] of 52.9%, an Inhibition rate [2] of 48.0% and an Inhibition rate [3] of 26.0%. It also gave an Inhibition rate [4] of 20.8%, an Inhibition rate [5] of 46.0% and an Inhibition rate [6] of 46.8%. The Inhibition rate [7] was 33.9%, the Inhibition rate [8] was 29.7% and the Inhibition rate [9] was 54.7%. It also gave an Inhibition rate [10] of 29.1%, an Inhibition rate [11] of 47.2% and an Inhibition rate [12] of 45.0%. It also gave an Inhibition rate [13] of 56.4%, an Inhibition rate [14] of 41.3% and an Inhibition rate [15] of 20.1%. For the same molecule, the Inhibition rate [16] was 29.3% and the Inhibition rate [17] was 57.9%.

In the case of `CN1CCC(Nc2ncc3ncnc(Nc4ccc(F)c(Cl)c4)c3n2)CC1` [Inhibitor 2], the Inhibition rate [1] is reported as 21.7%, the Inhibition rate [2] is reported as 19.9% and the Inhibition rate [3] is reported as 10.5%. The Inhibition rate [4] was 9.0%, the Inhibition rate [5] was 28.1% and the Inhibition rate [6] was 18.8%. The Inhibition rate [7] was 19.0%, the Inhibition rate [8] was 7.7% and the Inhibition rate [9] was 40.3%. It also gave an Inhibition rate [10] of 7.7%, an Inhibition rate [11] of 18.9% and an Inhibition rate [12] of 14.3%. The Inhibition rate [13] was 23.5%, the Inhibition rate [14] was 25.0% and the Inhibition rate [15] was 4.4%. For the same molecule, the Inhibition rate [16] was 7.7% and the Inhibition rate [17] was 29.6%.

In the case of `COc1cc2ncnc(Nc3ccc(OCc4ccccc4)cc3)c2cc1OC` [Inhibitor 3, 4-(4-benzyloxyanilino)-6,7-dimethoxyquinazoline], the Inhibition rate [1] is reported as 59.8%, the Inhibition rate [2] is reported as 11.3% and the Inhibition rate [3] is reported as 15.1%. It also gave an Inhibition rate [4] of 38.5%, an Inhibition rate [5] of 24.1% and an Inhibition rate [6] of 44.1%. It also gave an Inhibition rate [7] of 48.7%, an Inhibition rate [8] of 24.5% and an Inhibition rate [9] of 68.5%. For the same molecule, the Inhibition rate [10] was 30.2%, the Inhibition rate [11] was 42.2% and the Inhibition rate [12] was 38.0%. For the same molecule, the Inhibition rate [13] was 42.0%, the Inhibition rate [14] was 50.5% and the Inhibition rate [15] was 37.2%. It also gave an Inhibition rate [16] of 25.7% and an Inhibition rate [17] of 56.4%.

`CN(C)c1cc2c(Nc3ccc4c(cnn4Cc4ccccc4)c3)ncnc2cn1` [Inhibitor 4, N4-(1-benzyl-1H-indazol-5-yl)-N6,N6-dimethyl-pyrido-[3,4-d]-pyrimidine-4,6-diamine] showed an Inhibition rate [1] of 48.8%, an Inhibition rate [2] of 12.1% and an Inhibition rate [3] of 24.6%. The Inhibition rate [4] was 7.0%, the Inhibition rate [5] was 17.9% and the Inhibition rate [6] was 31.4%. The Inhibition rate [7] was 26.3%, the Inhibition rate [8] was 21.3% and the Inhibition rate [9] was 52.7%. For the same molecule, the Inhibition rate [10] was 27.0%, the Inhibition rate [11] was 32.4% and the Inhibition rate [12] was 29.2%. It also gave an Inhibition rate [13] of 38.9%, an Inhibition rate [14] of 19.6% and an Inhibition rate [15] of 20.9%. For the same molecule, the Inhibition rate [16] was −3.8% and the Inhibition rate [17] was 33.7%.

`CS(=O)(=O)CCNCc1nc(-c2ccc3ncnc(Nc4ccc(OCc5cccc(F)c5)c(Cl)c4)c3c2)cs1.Cl.Cl` [Inhibitor 5, N-[3-chloro-4-[(3-fluorophenyl)methoxy]phenyl]-6-[2-[[[2-(methylsulfonyl)ethyl]amino]methyl]-4-thiazolyl]-4-quinazolineamine dihydrochloride] showed an Inhibition rate [1] of 68.8%, an Inhibition rate [2] of 75.4% and an Inhibition rate [3] of 42.7%. It also gave an Inhibition rate [4] of 44.8%, an Inhibition rate [5] of 42.3% and an Inhibition rate [6] of 75.7%. The Inhibition rate [7] was 68.5%, the Inhibition rate [8] was 66.2% and the Inhibition rate [9] was 66.9%. For the same molecule, the Inhibition rate [10] was 50.9%, the Inhibition rate [11] was 56.3% and the Inhibition rate [12] was 56.1%. For the same molecule, the Inhibition rate [13] was 58.2%, the Inhibition rate [14] was 48.1% and the Inhibition rate [15] was 64.4%. The Inhibition rate [16] was 40.9% and the Inhibition rate [17] was 68.4%.

With `COc1cc2c(cc1OC)-c1[nH]nc(Nc3cccc(F)c3)c1C2` [Inhibitor 6] the Inhibition rate [1] was 50.1%, the Inhibition rate [2] was 44.4% and the Inhibition rate [3] was 30.7%. For the same molecule, the Inhibition rate [4] was 32.5%, the Inhibition rate [5] was 41.8% and the Inhibition rate [6] was 45.3%. For the same molecule, the Inhibition rate [7] was 36.1%, the Inhibition rate [8] was 27.1% and the Inhibition rate [9] was 62.9%. It also gave an Inhibition rate [10] of 37.5%, an Inhibition rate [11] of 28.1% and an Inhibition rate [12] of 49.0%. The Inhibition rate [13] was 45.7%, the Inhibition rate [14] was 50.9% and the Inhibition rate [15] was 27.0%. It also gave an Inhibition rate [16] of 18.4% and an Inhibition rate [17] of 38.8%.

Molecule `CCCNC(=O)Nc1ccc(Oc2ncnc3cc(OC)c(OC)cc23)cc1Cl` [Inhibitor 7] has an Inhibition rate [1] of 24.0%, an Inhibition rate [2] of 59.1% and an Inhibition rate [3] of 30.3%. It also gave an Inhibition rate [4] of 18.3%, an Inhibition rate [5] of 17.3% and an Inhibition rate [6] of 45.0%. It also gave an Inhibition rate [7] of 23.1%, an Inhibition rate [8] of 33.4% and an Inhibition rate [9] of 17.3%. It also gave an Inhibition rate [10] of 22.0%, an Inhibition rate [11] of 2.3% and an Inhibition rate [12] of 11.2%. For the same molecule, the Inhibition rate [13] was 9.7%, the Inhibition rate [14] was 25.1% and the Inhibition rate [15] was 18.5%. It also gave an Inhibition rate [16] of 7.1% and an Inhibition rate [17] of 27.7%.

In the case of `Cc1cc(F)c(Nc2ncnc3cc(OCc4ccccc4)ccc23)cc1O.Cl` [Inhibitor 8], the Inhibition rate [1] is reported as 5.1%, the Inhibition rate [2] is reported as 45.7% and the Inhibition rate [3] is reported as 18.0%. It also gave an Inhibition rate [4] of 0.6%, an Inhibition rate [5] of 11.1% and an Inhibition rate [6] of 25.9%. For the same molecule, the Inhibition rate [7] was 12.1%, the Inhibition rate [8] was 11.9% and the Inhibition rate [9] was 27.2%. The Inhibition rate [10] was 38.1%, the Inhibition rate [11] was 18.5% and the Inhibition rate [12] was 8.3%. For the same molecule, the Inhibition rate [13] was 12.8%, the Inhibition rate [14] was 14.0% and the Inhibition rate [15] was 10.1%. It also gave an Inhibition rate [16] of 11.5% and an Inhibition rate [17] of 6.4%.

— US20110318768A1, “METHOD FOR DETERMINING SENSITIVITY OF TUMOR CELLS TO TYROSINE KINASE INHIBITOR AND COMPUTER PROGRAM PRODUCT” (SYSMEX CORPORATION, priority 2010, published 2011)
